From US7550604B2, “Pyrroloterpenes and use of the same as antimicrobial and anticancer agents” (Nereus Pharmaceuticals, Inc., priority 2004, dated 2009) come the findings set out here.

Broadly, the EC50 is the concentration needed to bring the measured effect to its halfway point. One may read the MIC as the lowest concentration found to suppress growth. Lower therefore signals inhibition by little substance.

Format in all cases: cell-based
In one experiment the test system is B16-F10 cells. The experiment in a line: Growth inhibition of murine melanoma B16-F10 cells (resazurin). As to the method: B16-F10 (ATCC; CRL-6475) a murine melanoma cell line was maintained in complete Dulbecco's Modification of Eagle's Medium (DMEM) (DMEM supplemented with 10% (v/v) Fetal bovine serum, 2 mM glutamine, 10 mM HEPES and Penicillin/Streptomycin at 100 IU/ml and 100 μg/ml respectively). The cells were cultured in an incubator at 37° C. in 5% CO2 and 95% humidified air. For cell growth inhibition assays, B16-F10 cells were seeded at 1.25×10^3 cells/well in 90 μl complete media into Corning 3904 black-walled, clear-bottom tissue culture plates and the plates were incubated overnight to allow cells to establish and enter log phase growth. Two independent assays were performed using 200 mM or 400 mM stock solutions prepared in 100% DMSO. 10× concentrated serial dilutions of the compound of Formula (V) were prepared in appropriate culture medium. Ten μl volumes of the serial dilutions were added to the test wells in triplicate resulting in final concentrations ranging from 500 μM to 158 nM or 1 mM to 7.81 μM. The plates were returned to the incubator for 48 hours. The final concentration of DMSO was 0.25% in all samples. […] Since living cells metabolize Resazurin, the fluorescence of the reduction product of Resazurin was measured using a Fusion microplate fluorometer (Packard Bioscience) with λex =535 nm and λem=590 nm filters. […]
A general note: Resazurin is reduced to fluorescent resorufin, in cell work by metabolically active cells.

The test system of another experiment is Bacillus cereus 14579. The experiment in a line: Antimicrobial MIC assay (NCCLS M7-A5). The procedure:
(§1) Minimum inhibitory concentrations (MICs) were determined according to the National Committee for Clinical Laboratory Standards (NCCLS) susceptibility test guideline M7-A5 (Ferraro, M. 2001 Methods for Dilution Antimicrobial Susceptibility Tests for Bacteria that Grow Aerobically; Approved Standard (NCCLS). National Committee for Clinical Laboratory Standards (NCCLS), Villanova, which is incorporated herein by reference in its entirety).

Another experiment relates to Escherichia coli imp. The experiment in a line: Antimicrobial MIC assay (NCCLS M7-A5). The procedure:
as §1

For experiment [1], the system named is Staphylococcus aureus - MSSA. Briefly: Antimicrobial MIC assay (NCCLS M7-A5). The procedure: as §1
In another experiment the test system is Candida albicans. Briefly: Antimicrobial MIC assay (NCCLS M7-A5). The procedure: as §1
The subject of another experiment is HT-29 cells. Briefly: Growth inhibition of human colorectal adenocarcinoma HT-29 cells (resazurin). As to the method: HT-29 (ATCC; HTB-38) a human colorectal adenocarcinoma cell line was maintained in complete McCoy's 5A medium (McCoy's 5A medium supplemented with 10% (v/v) Fetal bovine serum, 2 mM glutamine, 10 mM HEPES, 1% (v/v) non-essential amino acids (NEAA), 1 mM sodium pyruvate and Penicillin/Streptomycin at 100 IU/ml and 100 μg/ml respectively). The cells were cultured in an incubator at 37° C. in 5% CO2 and 95% humidified air. For cell growth inhibition assays, HT-29 cells were seeded at 5×10^3 cells/well in 90 μl complete media into Corning 3904 black-walled, clear-bottom tissue culture plates and the plates were incubated overnight to allow cells to establish and enter log phase growth. Two independent assays were performed using 200 mM or 400 mM stock solutions prepared in 100% DMSO. 10× concentrated serial dilutions of the compound of Formula (V) were prepared in appropriate culture medium. Ten μl volumes of the serial dilutions were added to the test wells in triplicate resulting in final concentrations ranging from 500 μM to 158 nM or 1 mM to 7.81 μM. The plates were returned to the incubator for 48 hours. The final concentration of DMSO was 0.25% in all samples. […] Since living cells metabolize Resazurin, the fluorescence of the reduction product of Resazurin was measured using a Fusion microplate fluorometer (Packard Bioscience) with λex =535 nm and λem=[…] filters. […]

SMILES strings stand for the structures. Bounds are passed on as bounds.

For `CC(=C/C(=O)c1ccc[nH]1)/C=C/C(O)C1(C)CCC(C(C)(C)O)O1` (stereo not shown) [Formula (V)], the “inhibition of growth of B16-F10 tumor cells (in words)” value with B16-F10 cells (B16-F10) is “able to inhibit the growth”. The EC50 was determined as 260 µM with B16-F10 cells (Mus musculus, B16-F10, 48 hours drug exposure, resazurin fluorescence, read-out: EC50 against B16-F10 cells) and 286 µM with HT-29 cells (Homo sapiens, HT-29, 48 hours drug exposure, resazurin fluorescence, read-out: EC50 against HT-29 cells). For the same compound, the minimum inhibitory concentration (MIC) against Bacillus cereus 14579 (Bacillus cereus 14579) was 72 mg/L; against Escherichia coli imp, 128 mg/L; in experiment [1] (Staphylococcus aureus - MSSA), 64 mg/L; against Candida albicans it was over 128 mg/L. Further, the “anti-bacterial activity versus gram positive microorganisms (in words)” value (in the experiment with Bacillus cereus 14579 (gram positive: Bacillus cereus 14579); in experiment [1] (gram positive: Staphylococcus aureus - MSSA)) was “possess anti-bacterial activity” each time. Also, the “inhibition of growth of HT-29 tumor cells (in words)” value in the experiment with HT-29 cells (HT-29) is given as “able to inhibit the growth”.
